Experimental data from PubChem BioAssay AID248 (DTP/NCI, 2004).
“And” between values parts separate entries of the source, which are not always exact repeats. Equal values may be shown once. Inconclusive results and toxic doses are left out. No stated cut-off is given here; in the data, active means T/C of 150% or more; inactive means T/C below 125%.

System: L1210 leukemia ip in BDF1 mice, survival T/C
Experiment: NCI In Vivo Anticancer Drug Screen. Data for tumor model L1210 Leukemia (intraperitoneal) in B6D2F1 (BDF1) mice
Conditions: endpoint: mean survival time, higher = longer survival
Description: The antitumor activity of compounds was measured in mice bearing transplantable tumors. Survival or tumor size were measured and the results are expressed as the measurement made in the treated group (T) divided by the measurement made in the vehicle treated control group (C). The tumor model used in this assay is L1210 Leukemia (intraperitoneal) in B6D2F1 (BDF1) mice

[1] = dose: 100.0 mg/kg/injection, schedule: Q04DX003 (ip), vehicle: saline
[2] = dose: 200.0 mg/kg/injection, schedule: Q04DX003 (ip), vehicle: saline
[3] = dose: 400.0 mg/kg/injection, schedule: Q04DX003 (ip), vehicle: saline
[4] = dose: 100.0 mg/kg/injection, schedule: Q04DX002 (ip), vehicle: saline with Tween-80
[5] = dose: 200.0 mg/kg/injection, schedule: Q04DX002 (ip), vehicle: saline with Tween-80
[6] = dose: 400.0 mg/kg/injection, schedule: Q04DX002 (ip), vehicle: saline with Tween-80
[7] = dose: 100.0 mg/kg/injection, schedule: Q01DX001 (ip), vehicle: carboxymethylcellulose (CMC)
[8] = dose: 100.0 mg/kg/injection, schedule: Q01DX001 (ip), vehicle: saline
[9] = dose: 200.0 mg/kg/injection, schedule: Q01DX001 (ip), vehicle: saline
[10] = dose: 400.0 mg/kg/injection, schedule: Q01DX001 (ip), vehicle: saline
[11] = dose: 100.0 mg/kg/injection, schedule: Q04DX003 (ip), vehicle: Klucel (hydroxypropylcellulose) (HPC)
[12] = dose: 200.0 mg/kg/injection, schedule: Q04DX003 (ip), vehicle: Klucel (hydroxypropylcellulose) (HPC)
[13] = dose: 400.0 mg/kg/injection, schedule: Q04DX003 (ip), vehicle: Klucel (hydroxypropylcellulose) (HPC)
[14] = dose: 100.0 mg/kg/injection, schedule: Q01DX009 (ip), vehicle: saline with Tween-80
[15] = dose: 200.0 mg/kg/injection, schedule: Q01DX009 (ip), vehicle: saline with Tween-80
[16] = dose: 100.0 mg/kg/injection, schedule: Q04DX003 (ip), vehicle: saline with Tween-80
[17] = dose: 200.0 mg/kg/injection, schedule: Q04DX003 (ip), vehicle: saline with Tween-80
[18] = dose: 400.0 mg/kg/injection, schedule: Q04DX003 (ip), vehicle: saline with Tween-80

Measured: T/C

O=C(O)C1CCCC[N-]1.O=C(O)C1CCCC[N-]1.O=C(O)C1CCCC[N-]1.O=C(O)C1CCCC[N-]1.[Cl][Rh][Cl] (centres undefined)
inactive: dose: 12.5 mg/kg/injection, schedule: Q01DX008 (ip), vehicle: water 98 % of control | dose: 25.0 mg/kg/injection, schedule: Q01DX008 (ip), vehicle: water 98 % of control | dose: 50.0 mg/kg/injection, schedule: Q01DX008 (ip), vehicle: water 103 % of control | dose: 100.0 mg/kg/injection, schedule: Q01DX008 (ip), vehicle: water 97 % of control | dose: 100.0 mg/kg/injection, schedule: Q01DX009 (ip), vehicle: saline 93 % of control | [1] 102 % of control | [2] 100 % of control | [3] 96 % of control

CC(C)c1nc2c(=O)[nH]cnc2o1
inactive: dose: 25.0 mg/kg/injection, schedule: Q01DX005 (ip), vehicle: saline 105 % of control | dose: 50.0 mg/kg/injection, schedule: Q01DX005 (ip), vehicle: saline 107 % of control | dose: 100.0 mg/kg/injection, schedule: Q01DX005 (ip), vehicle: saline 95 % of control and 102 % of control | dose: 200.0 mg/kg/injection, schedule: Q01DX005 (ip), vehicle: saline 100 % of control

CC(C)(C(=O)OCCOCCCl)c1cccc2ccccc12
inactive: [4] 113 % of control | [5] 111 % of control | [6] 95 % of control

O=C1C(Cl)=C(N=Nc2c(Cl)c(O)c3ccccc3c2O)C(=O)c2ccccc21
inactive: dose: 12.5 mg/kg/injection, schedule: Q01DX009 (ip), vehicle: acetone 105 % of control | dose: 25.0 mg/kg/injection, schedule: Q01DX009 (ip), vehicle: acetone 107 % of control | dose: 50.0 mg/kg/injection, schedule: Q01DX009 (ip), vehicle: acetone 104 % of control | [7] 97 % of control

CCCC(C)CC(=O)O (centres undefined)
inactive: [8] 102 % of control | [9] 102 % of control | [10] 98 % of control

CN(C)C(SCc1c(Cl)c(Cl)c(Cl)c(Cl)c1Cl)=[N+](C)C
inactive: dose: 3.0 mg/kg/injection, schedule: Q04DX002 (ip), vehicle: saline 101 % of control | dose: 6.0 mg/kg/injection, schedule: Q04DX002 (ip), vehicle: saline 93 % of control | dose: 12.0 mg/kg/injection, schedule: Q04DX002 (ip), vehicle: saline 104 % of control

Cc1ccc2c(ccc3ccc4ccccc4c32)c1
inactive: [11] 90 % of control | [12] 89 % of control | [13] 93 % of control

COC(=O)/C=C/C=C/c1ccc(Br)cc1
inactive: [1] 91 % of control | [2] 92 % of control | [3] 92 % of control

ClC(Cl)(c1ccccc1)C1(c2ccccc2)CC1
inactive: dose: 75.0 mg/kg/injection, schedule: Q01DX001 (ip), vehicle: acetone 107 % of control | dose: 150.0 mg/kg/injection, schedule: Q01DX001 (ip), vehicle: acetone 109 % of control

O=C(Nc1ccc(Cl)cc1Cl)OCCOc1ccc([N+](=O)[O-])cc1
inactive: dose: 50.0 mg/kg/injection, schedule: Q01DX009 (ip), vehicle: saline with Tween-80 102 % of control | [14] 98 % of control | [15] 93 % of control

CS(=O)(=O)N(CC(=O)O)Cc1ccc(Cl)cc1
inactive: dose: 100.0 mg/kg/injection, schedule: Q04DX003 (ip), vehicle: other 102 % of control | dose: 200.0 mg/kg/injection, schedule: Q04DX003 (ip), vehicle: other 105 % of control | dose: 400.0 mg/kg/injection, schedule: Q04DX003 (ip), vehicle: other 98 % of control

O=C1N(Cc2ccccc2)C(=O)C(Cc2ccccc2)(Cc2ccccc2)C(=O)N1Cc1ccccc1
inactive: [7] 101 % of control | dose: 200.0 mg/kg/injection, schedule: Q01DX001 (ip), vehicle: carboxymethylcellulose (CMC) 97 % of control | dose: 400.0 mg/kg/injection, schedule: Q01DX001 (ip), vehicle: carboxymethylcellulose (CMC) 95 % of control

CCN1CCCC(Nc2nc(C(Cl)(Cl)Cl)nc3cc(Cl)ccc23)C1 (centres undefined)
inactive: [14] 104 % of control | [16] 87 % of control | [17] 89 % of control | [18] 88 % of control

O=C(NC(=O)C(Cl)Cl)OC1c2cc(Cl)ccc2-c2c(Cl)cc(Cl)cc21 (centres undefined)
inactive: dose: 100.0 mg/kg/injection, schedule: Q01DX001 (ip), vehicle: Klucel (hydroxypropylcellulose) (HPC) 90 % of control | dose: 100.0 mg/kg/injection, schedule: Q01DX009 (ip), vehicle: Klucel (hydroxypropylcellulose) (HPC) 95 % of control | [11] 91 % of control | dose: 200.0 mg/kg/injection, schedule: Q01DX001 (ip), vehicle: Klucel (hydroxypropylcellulose) (HPC) 98 % of control | dose: 200.0 mg/kg/injection, schedule: Q01DX009 (ip), vehicle: Klucel (hydroxypropylcellulose) (HPC) 89 % of control | [12] 91 % of control | dose: 400.0 mg/kg/injection, schedule: Q01DX001 (ip), vehicle: Klucel (hydroxypropylcellulose) (HPC) 88 % of control | [13] 88 % of control

COc1cc(Cn2cccc2/C=C(\C#N)C(N)=O)cc(OC)c1
inactive: dose: 25.0 mg/kg/injection, schedule: Q04DX002 (ip), vehicle: Klucel (hydroxypropylcellulose) (HPC) 94 % of control | dose: 50.0 mg/kg/injection, schedule: Q04DX002 (ip), vehicle: Klucel (hydroxypropylcellulose) (HPC) 97 % of control | dose: 100.0 mg/kg/injection, schedule: Q04DX002 (ip), vehicle: Klucel (hydroxypropylcellulose) (HPC) 105 % of control

COc1n[nH]c(N)n1
inactive: [4] 122 % of control | [5] 98 % of control | [6] 105 % of control

CC([NH-])C(=O)O.CC([NH-])C(=O)O.CC([NH-])C(=O)O.[Co+3] (centres undefined)
inactive: dose: 25.0 mg/kg/injection, schedule: Q04DX002 (ip), vehicle: saline with Tween-80 115 % of control | dose: 50.0 mg/kg/injection, schedule: Q01DX009 (ip), vehicle: water 103 % of control | dose: 50.0 mg/kg/injection, schedule: Q04DX002 (ip), vehicle: saline with Tween-80 98 % of control | dose: 100.0 mg/kg/injection, schedule: Q01DX009 (ip), vehicle: water 118 % of control | [4] 115 % of control

[N-]=[N+]=C1C(c2ccccc2)=NC(c2nccc3ccccc23)=C1[N+](=O)[O-]
inactive: dose: 5.0 mg/kg/injection, schedule: Q01DX001 (ip), vehicle: saline 113 % of control | dose: 10.0 mg/kg/injection, schedule: Q01DX001 (ip), vehicle: saline 102 % of control | dose: 20.0 mg/kg/injection, schedule: Q01DX001 (ip), vehicle: saline 110 % of control

CC1CCC2(C)CCC(C(C)C)C2(O)CC1 (centres undefined)
inactive: dose: 50.0 mg/kg/injection, schedule: Q01DX009 (ip), vehicle: saline sonified 90 % of control | dose: 100.0 mg/kg/injection, schedule: Q01DX009 (ip), vehicle: saline sonified 97 % of control | dose: 100.0 mg/kg/injection, schedule: Q04DX003 (ip), vehicle: saline sonified 107 % of control | dose: 200.0 mg/kg/injection, schedule: Q01DX009 (ip), vehicle: saline sonified 92 % of control | dose: 200.0 mg/kg/injection, schedule: Q04DX003 (ip), vehicle: saline sonified 100 % of control

Cc1c(O)cccc1N(C)C
inactive: [8] 112 % of control | dose: 100.0 mg/kg/injection, schedule: Q04DX003 (ip), vehicle: acetone 111 % of control | [9] 105 % of control | dose: 200.0 mg/kg/injection, schedule: Q04DX003 (ip), vehicle: acetone 106 % of control | [2] 88 % of control | [10] 91 % of control | dose: 400.0 mg/kg/injection, schedule: Q04DX003 (ip), vehicle: acetone 102 % of control | [3] 90 % of control

CCOC(=O)c1cnn2c(=O)[nH]cnc12
inactive: [16] 98 % of control | [17] 109 % of control

COC(=O)c1nc(C(=O)OC)c(C(=O)OC)nc1C(=O)OC
inactive: [16] 88 % of control | [17] 93 % of control | [18] 102 % of control

CC(=O)OC(c1ccccc1)C(Cl)(Cl)Cl (centres undefined)
inactive: [14] 93 % of control | [15] 104 % of control | dose: 400.0 mg/kg/injection, schedule: Q01DX009 (ip), vehicle: saline with Tween-80 97 % of control
